Patent US20250312333A1, “COMPOSITION CONTAINING ARIPIPRAZOLE AS ACTIVE INGREDIENT FOR ENHANCING ANTICANCER EFFECT OF KRAS G12C GENETIC MUTATION THERAPEUTIC AGENT” (KOREA INSTITUTE OF RADIOLOGICAL & MEDICAL SCIENCES, priority 2022, published 2025)

Experiments:
Assay type in all cases: cell-based
NOXA protein [1] = test: NOXA protein expression by Western blot in NCI-H1373 cells; conditions: aripiprazole treatment, eight hours, Western blot (FIG. 1)
Protocol: (§1) To identify an effect of aripiprazole on the expression of a NOXA protein in cancer cells, MIA PaCa-2 cells and NCI-H1373 cells were treated with aripiprazole. Eight hours later, proteins were extracted from cells after washing with PBS, and a level of NOXA expression was checked via Western blot.

NOXA protein [2] = test: NOXA protein expression by Western blot in MIA PaCa-2 cells; conditions: aripiprazole treatment, eight hours, Western blot (FIG. 1)
Protocol: as §1

NCI-H1373 cells = test: PARP cleavage (apoptosis) by Western blot in NCI-H1373 cells; conditions: co-treatment with the therapeutic agent for KRAS G12C genetic mutation vs either agent alone, twenty four hours (FIG. 4)
Protocol: (§2) To identify the effect of aripiprazole on apoptosis induced by the therapeutic agent for KRAS G12C genetic mutation in cancer cells, NCI-H1373 cells were treated with aripiprazole alone or in combination with the therapeutic agent for KRAS G12C genetic mutation. Twenty four hours later, proteins were extracted from cells after washing with PBS, and the degree of PARP cleavage was checked via Western blot.

MIA PaCa-2 cells = test: PARP cleavage (apoptosis) by Western blot in MIA PaCa-2 cells; conditions: co-treatment with the therapeutic agent for KRAS G12C genetic mutation vs either agent alone, twenty four hours (FIG. 3)
Protocol: as §2, with “MIA PaCa-2” for “NCI-H1373”

In the case of O=C1CCc2ccc(OCCCCN3CCN(c4cccc(Cl)c4Cl)CC3)cc2N1 [aripiprazole], the “expression of NOXA protein” value (NOXA protein [1]) is reported as “increased”, the “expression of NOXA protein” value (NOXA protein [2]) is reported as “increased” and the “degree of PARP cleavage” value (NCI-H1373 cells) is reported as “superior effect of inducing PARP cleavage”. The “degree of PARP cleavage” value (MIA PaCa-2 cells) was “superior effect of inducing PARP cleavage”.
